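Protocol summary: plate cells (96-well), add compound at 5 concentrations, incubate 48 h, interpolate endpoints linearly. GI50 = concentration required for 50% inhibition of growth.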 The source made the active and inactive calls. Cut-off read from the data, not from the text of the source: active = GI50 up to about 1.1 µM and inactive = higher.
Tests used:
Assay in all cases: DTP human tumour cell line panel, 48 h
[1] = tested on: MDA-N
[2] = tested on: MDA-MB-435
[3] = tested on: 786-0
[4] = tested on: PC-3
[5] = tested on: UO-31
[6] = tested on: K562
[7] = tested on: EKVX
[8] = tested on: OVCAR-5
[9] = tested on: MOLT-4
[10] = tested on: A498
[11] = tested on: T47D
[12] = tested on: HCT-15
[13] = tested on: NCI-H226
[14] = tested on: ACHN
[15] = tested on: SF-539
[16] = tested on: BT-549
[17] = tested on: SW-620
[18] = tested on: SR
[19] = tested on: SF-268
[20] = tested on: HCT-116
[21] = tested on: HCC 2998
[22] = tested on: NCI-H460
[23] = tested on: OVCAR-3
[24] = tested on: A549
[25] = tested on: MCF7
[26] = tested on: SNB-75
[27] = tested on: SK-MEL-2
[28] = tested on: OVCAR-8
[29] = tested on: M14
[30] = tested on: TK-10
[31] = tested on: RXF 393
[32] = tested on: UACC-62
[33] = tested on: UACC-257
[34] = tested on: SNB-19
[35] = tested on: IGROV-1
[36] = tested on: KM12
[37] = tested on: SK-MEL-5
[38] = tested on: HOP-92
[39] = tested on: NCI-H23
[40] = tested on: NCI/ADR-RES
[41] = tested on: HOP-62
[42] = tested on: SK-OV-3
[43] = tested on: SF-295
[44] = tested on: COLO 205
[45] = tested on: CAKI-1
[46] = tested on: MDA-MB-231
[47] = tested on: HT-29
[48] = tested on: SK-MEL-28
[49] = tested on: RPMI-8226
[50] = tested on: OVCAR-4
[51] = tested on: U-251
[52] = tested on: SN12C
[53] = tested on: DU-145
[54] = tested on: Hs-578T
[55] = tested on: Malme-3M
[56] = tested on: LOX IMVI
[57] = tested on: CCRF-CEM
[58] = tested on: HL-60
[59] = tested on: NCI-H522

C=C(C(=O)OC)[C@H]1CC/C(C)=C/CC[C@@](C)(O)C=CC[C@@]2(C)O[C@@H]2C1
GI50 [1]: 49.4 µM (inactive)
GI50 [2]: 17.3 µM (inactive)
GI50 [3]: 17.6 µM (inactive)
GI50 [4]: 44.4 µM (inactive)
GI50 [5]: 21.4 µM (inactive)
GI50 [6]: > 10 µM (inactive)
GI50 [7]: 20.8 µM (inactive)
GI50 [8]: > 100 µM (inactive)
GI50 [9]: 12.7 µM (inactive)
GI50 [10]: 20.7 µM (inactive)
GI50 [11]: 37.3 µM (inactive)
GI50 [12]: 24.2 µM
GI50 [13]: > 100 µM (inactive)
GI50 [14]: 36.3 µM (inactive)
GI50 [15]: 21.5 µM (inactive)
GI50 [16]: 76.2 µM (inactive)
GI50 [17]: 28.1 µM (inactive)
GI50 [18]: 9.93 µM (inactive)
GI50 [19]: 19.6 µM (inactive)
GI50 [20]: 18.8 µM (inactive)
GI50 [21]: 42.1 µM (inactive)
GI50 [22]: > 100 µM (inactive)
GI50 [23]: 17.7 µM (inactive)
GI50 [24]: 81.3 µM (inactive)
GI50 [25]: 40.8 µM (inactive)
GI50 [26]: > 100 µM (inactive)
GI50 [27]: 97.1 µM (inactive)
GI50 [28]: 13.9 µM (inactive)
GI50 [29]: 62.8 µM (inactive)
GI50 [30]: 40.6 µM (inactive)
GI50 [31]: 32.4 µM (inactive)
GI50 [32]: 31.9 µM (inactive)
GI50 [33]: 27.5 µM (inactive)
GI50 [34]: > 100 µM (inactive)
GI50 [35]: 46.6 µM (inactive)
GI50 [36]: 37.6 µM (inactive)
GI50 [37]: 1.04 µM (active)
GI50 [38]: 19.1 µM (inactive)
GI50 [39]: 24.1 µM (inactive)
GI50 [40]: 14.3 µM (inactive)
GI50 [41]: 44.3 µM (inactive)
GI50 [42]: > 100 µM (inactive)
GI50 [43]: > 100 µM (inactive)
GI50 [44]: 13.6 µM (inactive)
GI50 [45]: 24.1 µM (inactive)
GI50 [46]: 56.9 µM (inactive)
GI50 [47]: 15.2 µM (inactive)
GI50 [48]: 10.9 µM (inactive)
GI50 [49]: 16.1 µM (inactive)
GI50 [50]: 64.6 µM (inactive)
GI50 [51]: 40.4 µM (inactive)
GI50 [52]: 47.4 µM (inactive)
GI50 [53]: 22.9 µM (inactive)

O=C(O)/C(=C/C(=O)c1ccc(Cl)cc1)NNc1ccc([N+](=O)[O-])cc1[N+](=O)[O-]
GI50 [2]: 67.9 µM (inactive)
GI50 [54]: 31.2 µM (inactive)
GI50 [3]: 27 µM (inactive)
GI50 [4]: 36.2 µM (inactive)
GI50 [5]: 20.8 µM (inactive)
GI50 [6]: 36.9 µM (inactive)
GI50 [7]: > 100 µM (inactive)
GI50 [8]: 82.8 µM (inactive)
GI50 [9]: 42 µM (inactive)
GI50 [10]: > 100 µM (inactive)
GI50 [11]: 55.5 µM (inactive)
GI50 [12]: 48.3 µM
GI50 [13]: 23.7 µM (inactive)
GI50 [55]: 30.5 µM (inactive)
GI50 [14]: 31.8 µM (inactive)
GI50 [15]: 35.3 µM (inactive)
GI50 [56]: 75.3 µM (inactive)
GI50 [16]: 23.2 µM (inactive)
GI50 [18]: 50.9 µM (inactive)
GI50 [57]: 23.6 µM (inactive)
GI50 [19]: 38.7 µM (inactive)
GI50 [20]: 19.6 µM (inactive)
GI50 [21]: 59.8 µM (inactive)
GI50 [22]: 34.3 µM (inactive)
GI50 [58]: 49.3 µM (inactive)
GI50 [23]: 33.3 µM (inactive)
GI50 [24]: 40.6 µM (inactive)
GI50 [25]: 52.4 µM (inactive)
GI50 [27]: 31.7 µM (inactive)
GI50 [28]: 29.5 µM (inactive)
GI50 [29]: 42.1 µM (inactive)
GI50 [30]: 57.5 µM (inactive)
GI50 [32]: 38.7 µM (inactive)
GI50 [33]: > 100 µM (inactive)
GI50 [34]: 43.4 µM (inactive)
GI50 [35]: 66.7 µM (inactive)
GI50 [36]: 51.8 µM (inactive)
GI50 [37]: > 100 µM (inactive)
GI50 [38]: 22.9 µM (inactive)
GI50 [39]: 44.1 µM (inactive)
GI50 [59]: 21.6 µM (inactive)
GI50 [40]: 45.8 µM (inactive)
GI50 [41]: 28.4 µM (inactive)
GI50 [42]: 35.6 µM (inactive)
GI50 [43]: 41.4 µM (inactive)
GI50 [44]: > 100 µM (inactive)
GI50 [45]: 24.8 µM (inactive)
GI50 [46]: 36.8 µM (inactive)
GI50 [47]: 64.1 µM (inactive)
GI50 [48]: 43.5 µM (inactive)
GI50 [49]: 28.5 µM (inactive)
GI50 [50]: 19.7 µM (inactive)
GI50 [51]: 47.9 µM (inactive)
GI50 [52]: 41.8 µM (inactive)
GI50 [53]: 47.2 µM (inactive)

— ChEMBL document CHEMBL1201862, “PubChem BioAssay data set” (2004)
